According to PubChem BioAssay AID1918931 (Molecular Pharmacology Branch, DTP, NCI, 2023):

Test system: 138582-337-R-J1-PDC complex spheroid viability
Test: Anticancer human tumor 138582-337-R-J1-PDC patient-derived Merkel cell tumor cell line growth inhibition
Conditions: for IC50: curve of first compound; for viability, T/C: stronger effect = lower value
Summary of the method: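 Multicellular complex spheroids of tumor cells with human endothelial cells (HUVEC) and mesenchymal stem cells; the LSD1 inhibitor iadademstat was combined with standard-of-care or investigational agents. Top concentration at or near clinical Cmax, half-log dilutions; final DMSO ≤0.25%.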

[1] = second compound 0.1 µM, first compound 0.0316 µM
[2] = second compound 0.1 µM, first compound 0.1 µM
[3] = second compound 0.1 µM, first compound 0.316 µM
[4] = second compound 0.1 µM, first compound 1 µM
[5] = second compound 0.1 µM, first compound 3.16 µM
[6] = second compound 0.1 µM, first compound 10 µM
[7] = second compound 0.316 µM, first compound 0.0316 µM
[8] = second compound 0.316 µM, first compound 0.1 µM
[9] = second compound 0.316 µM, first compound 0.316 µM
[10] = second compound 0.316 µM, first compound 1 µM
[11] = second compound 0.316 µM, first compound 3.16 µM
[12] = second compound 0.316 µM, first compound 10 µM
[13] = second compound 1 µM, first compound 0.0316 µM
[14] = second compound 1 µM, first compound 0.1 µM
[15] = second compound 1 µM, first compound 0.316 µM
[16] = second compound 1 µM, first compound 1 µM
[17] = second compound 1 µM, first compound 3.16 µM
[18] = second compound 1 µM, first compound 10 µM
[19] = second compound 3.16 µM, first compound 0.0316 µM
[20] = second compound 3.16 µM, first compound 0.1 µM
[21] = second compound 3.16 µM, first compound 0.316 µM
[22] = second compound 3.16 µM, first compound 1 µM
[23] = second compound 3.16 µM, first compound 3.16 µM
[24] = second compound 3.16 µM, first compound 10 µM
[25] = second compound 10 µM, first compound 0.0316 µM
[26] = second compound 10 µM, first compound 0.1 µM
[27] = second compound 10 µM, first compound 0.316 µM
[28] = second compound 10 µM, first compound 1 µM
[29] = second compound 10 µM, first compound 3.16 µM
[30] = second compound 10 µM, first compound 10 µM
[31] = second compound 0.1 µM, first compound 0.00949 µM
[32] = second compound 0.1 µM, first compound 0.03 µM
[33] = second compound 0.1 µM, first compound 0.0949 µM
[34] = second compound 0.1 µM, first compound 0.3 µM
[35] = second compound 0.316 µM, first compound 0.00949 µM
[36] = second compound 0.316 µM, first compound 0.03 µM
[37] = second compound 0.316 µM, first compound 0.0949 µM
[38] = second compound 0.316 µM, first compound 0.3 µM
[39] = second compound 1 µM, first compound 0.00949 µM
[40] = second compound 1 µM, first compound 0.03 µM
[41] = second compound 1 µM, first compound 0.0949 µM
[42] = second compound 1 µM, first compound 0.3 µM
[43] = second compound 3.16 µM, first compound 0.00949 µM
[44] = second compound 3.16 µM, first compound 0.03 µM
[45] = second compound 3.16 µM, first compound 0.0949 µM
[46] = second compound 3.16 µM, first compound 0.3 µM
[47] = second compound 10 µM, first compound 0.00949 µM
[48] = second compound 10 µM, first compound 0.03 µM
[49] = second compound 10 µM, first compound 0.0949 µM
[50] = second compound 10 µM, first compound 0.3 µM
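Also: spheroids exposed to agents for 7 days.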
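For viability, T/C in this document: 100% = DMSO vehicle control viability.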

CC1(C)CCC(CN2CCN(c3ccc(C(=O)NS(=O)(=O)c4ccc(NCC5CCOCC5)c([N+](=O)[O-])c4)c(Oc4cnc5[nH]ccc5c4)c3)CC2)=C(c2ccc(Cl)cc2)C1 + NC1CCC(NC2CC2c2ccccc2)CC1
IC50 (second compound 0.1 µM): > 10000 nM
IC50 (second compound 0.316 µM): > 10000 nM
IC50 (second compound 1 µM): > 10000 nM
IC50 (second compound 3.16 µM): > 10000 nM
IC50 (second compound 10 µM): > 10000 nM
viability, T/C [1]: 85.4%
viability, T/C [2]: 95%
viability, T/C [3]: 92.5%
viability, T/C [4]: 91.8%
viability, T/C [5]: 90.7%
viability, T/C [6]: 126%
viability, T/C [7]: 95.9%
viability, T/C [8]: 104%
viability, T/C [9]: 99.1%
viability, T/C [10]: 109%
viability, T/C [11]: 96.8%
viability, T/C [12]: 88.7%
viability, T/C [13]: 99.8%
viability, T/C [14]: 89.9%
viability, T/C [15]: 82.3%
viability, T/C [16]: 79.9%
viability, T/C [17]: 92.1%
viability, T/C [18]: 81.3%
viability, T/C [19]: 90.7%
viability, T/C [20]: 100%
viability, T/C [21]: 108%
viability, T/C [22]: 106%
viability, T/C [23]: 92.5%
viability, T/C [24]: 77.3%
viability, T/C [25]: 80.2%
viability, T/C [26]: 88.1%
viability, T/C [27]: 70.8%
viability, T/C [28]: 78.7%
viability, T/C [29]: 78.3%
viability, T/C [30]: 63.5%

CC1COCCN1c1cc(C2(S(C)(=N)=O)CC2)nc(-c2ccnc3[nH]ccc23)n1 (stereo not given) + NC1CCC(NC2CC2c2ccccc2)CC1
IC50 (second compound 0.1 µM): > 10000 nM
IC50 (second compound 0.316 µM): > 10000 nM
IC50 (second compound 1 µM): > 10000 nM
IC50 (second compound 3.16 µM): > 10000 nM
IC50 (second compound 10 µM): 2250 nM
viability, T/C [1]: 107%
viability, T/C [2]: 91.1%
viability, T/C [3]: 83.2%
viability, T/C [4]: 89.1%
viability, T/C [5]: 63.4%
viability, T/C [6]: 49.4%
viability, T/C [7]: 105%
viability, T/C [8]: 99%
viability, T/C [9]: 86.9%
viability, T/C [10]: 83%
viability, T/C [11]: 64.1%
viability, T/C [12]: 52.9%
viability, T/C [13]: 88.1%
viability, T/C [14]: 93.4%
viability, T/C [15]: 100%
viability, T/C [16]: 65.3%
viability, T/C [17]: 59.8%
viability, T/C [18]: 60.9%
viability, T/C [19]: 92.6%
viability, T/C [20]: 93.2%
viability, T/C [21]: 98%
viability, T/C [22]: 78.2%
viability, T/C [23]: 63.1%
viability, T/C [24]: 49.5%
viability, T/C [25]: 87.3%
viability, T/C [26]: 88.1%
viability, T/C [27]: 71%
viability, T/C [28]: 62.1%
viability, T/C [29]: 46.1%
viability, T/C [30]: 21.3%

CCN(c1cc(-c2ccc(CN3CCOCC3)cc2)cc(C(=O)NCc2c(C)cc(C)[nH]c2=O)c1C)C1CCOCC1 + NC1CCC(NC2CC2c2ccccc2)CC1
IC50 (second compound 0.1 µM): > 3000 nM
IC50 (second compound 0.316 µM): > 3000 nM
IC50 (second compound 1 µM): > 3000 nM
IC50 (second compound 3.16 µM): > 3000 nM
IC50 (second compound 10 µM): > 3000 nM
viability, T/C [31]: 101%
viability, T/C [32]: 87.9%
viability, T/C [33]: 109%
viability, T/C [34]: 92.4%
viability, T/C (second compound 0.1 µM, first compound 0.949 µM): 106%
viability, T/C (second compound 0.1 µM, first compound 3 µM): 111%
viability, T/C [35]: 101%
viability, T/C [36]: 101%
viability, T/C [37]: 91%
viability, T/C [38]: 95.3%
viability, T/C (second compound 0.316 µM, first compound 0.949 µM): 124%
viability, T/C (second compound 0.316 µM, first compound 3 µM): 105%
viability, T/C [39]: 98.6%
viability, T/C [40]: 106%
viability, T/C [41]: 98.2%
viability, T/C [42]: 90.3%
viability, T/C (second compound 1 µM, first compound 0.949 µM): 97.7%
viability, T/C (second compound 1 µM, first compound 3 µM): 103%
viability, T/C [43]: 99.2%
viability, T/C [44]: 103%
viability, T/C [45]: 90.6%
viability, T/C [46]: 92.3%
viability, T/C (second compound 3.16 µM, first compound 0.949 µM): 110%
viability, T/C (second compound 3.16 µM, first compound 3 µM): 105%
viability, T/C [47]: 88.9%
viability, T/C [48]: 86.7%
viability, T/C [49]: 82.2%
viability, T/C [50]: 90.9%
viability, T/C (second compound 10 µM, first compound 0.949 µM): 84.9%
viability, T/C (second compound 10 µM, first compound 3 µM): 84.8%

Nc1ncn(C2CC(O)C(CO)S2)c(=O)n1 (stereo not given) + NC1CCC(NC2CC2c2ccccc2)CC1
IC50 (second compound 0.1 µM): > 300 nM
IC50 (second compound 0.316 µM): > 300 nM
IC50 (second compound 1 µM): > 300 nM
IC50 (second compound 3.16 µM): > 300 nM
IC50 (second compound 10 µM): > 300 nM
viability, T/C (second compound 0.1 µM, first compound 0.000949 µM): 98.9%
viability, T/C (second compound 0.1 µM, first compound 0.003 µM): 105%
viability, T/C [31]: 101%
viability, T/C [32]: 102%
viability, T/C [33]: 106%
viability, T/C [34]: 93.5%
viability, T/C (second compound 0.316 µM, first compound 0.000949 µM): 95%
viability, T/C (second compound 0.316 µM, first compound 0.003 µM): 93.9%
viability, T/C [35]: 96.4%
viability, T/C [36]: 95.4%
viability, T/C [37]: 94.5%
viability, T/C [38]: 108%
viability, T/C (second compound 1 µM, first compound 0.000949 µM): 90.9%
viability, T/C (second compound 1 µM, first compound 0.003 µM): 103%
viability, T/C [39]: 107%
viability, T/C [40]: 87.8%
viability, T/C [41]: 81%
viability, T/C [42]: 100%
viability, T/C (second compound 3.16 µM, first compound 0.000949 µM): 89.2%
viability, T/C (second compound 3.16 µM, first compound 0.003 µM): 96%
viability, T/C [43]: 88%
viability, T/C [44]: 78.4%
viability, T/C [45]: 93.5%
viability, T/C [46]: 84.7%
viability, T/C (second compound 10 µM, first compound 0.000949 µM): 80.1%
viability, T/C (second compound 10 µM, first compound 0.003 µM): 80.4%
viability, T/C [47]: 91.4%
viability, T/C [48]: 87.5%
viability, T/C [49]: 78.6%
viability, T/C [50]: 85%

O=C(C=Cn1cnc(-c2cc(C(F)(F)F)cc(C(F)(F)F)c2)n1)NNc1cnccn1 + NC1CCC(NC2CC2c2ccccc2)CC1
IC50 (second compound 0.1 µM): 8.4 nM
IC50 (second compound 0.316 µM): 9.48 nM
IC50 (second compound 1 µM): 7.39 nM
IC50 (second compound 3.16 µM): 6.26 nM
IC50 (second compound 10 µM): 5.57 nM
viability, T/C (second compound 0.1 µM, first compound 0.00316 µM): 73.5%
viability, T/C (second compound 0.1 µM, first compound 0.01 µM): 45.8%
viability, T/C [1]: 21.6%
viability, T/C [2]: 18.4%
viability, T/C [3]: 22.6%
viability, T/C [4]: 17.4%
viability, T/C (second compound 0.316 µM, first compound 0.00316 µM): 67%
viability, T/C (second compound 0.316 µM, first compound 0.01 µM): 49.1%
viability, T/C [7]: 21.2%
viability, T/C [8]: 20.7%
viability, T/C [9]: 30.3%
viability, T/C [10]: 21.7%
viability, T/C (second compound 1 µM, first compound 0.00316 µM): 82.5%
viability, T/C (second compound 1 µM, first compound 0.01 µM): 38.4%
viability, T/C [13]: 21.4%
viability, T/C [14]: 20.5%
viability, T/C [15]: 21.6%
viability, T/C [16]: 23.1%
viability, T/C (second compound 3.16 µM, first compound 0.00316 µM): 61%
viability, T/C (second compound 3.16 µM, first compound 0.01 µM): 42.4%
viability, T/C [19]: 19%
viability, T/C [20]: 20.1%
viability, T/C [21]: 22.8%
viability, T/C [22]: 24.7%
viability, T/C (second compound 10 µM, first compound 0.00316 µM): 75%
viability, T/C (second compound 10 µM, first compound 0.01 µM): 24.6%
viability, T/C [25]: 11.9%
viability, T/C [26]: 18%
viability, T/C [27]: 24.5%
viability, T/C [28]: 31.8%
